Measurements taken from PMC9672040, “Identification of purine biosynthesis as an NADH-sensing pathway to mediate energy stress” (Nature Communications, 2022).
Like-named read-outs stand apart in the source and are kept apart here. One block for each molecule: values may come before it.

Legend:
[1] = molecular target: T1, PRPS2 (Homo sapiens, UniProt P11908); assay: SPR (Biacore T200), His-PRPS2 immobilized on CM5 chip; type: binding; conditions: read-out: dissociation constant
T1 construct: His-tagged, pET-28a, expressed in E. coli BL21, Ni-Sepharose purified; the AlphaFold id for docking (AF-P60891-F1) is that of PRPS1
T1 sequence (P11908 2-318): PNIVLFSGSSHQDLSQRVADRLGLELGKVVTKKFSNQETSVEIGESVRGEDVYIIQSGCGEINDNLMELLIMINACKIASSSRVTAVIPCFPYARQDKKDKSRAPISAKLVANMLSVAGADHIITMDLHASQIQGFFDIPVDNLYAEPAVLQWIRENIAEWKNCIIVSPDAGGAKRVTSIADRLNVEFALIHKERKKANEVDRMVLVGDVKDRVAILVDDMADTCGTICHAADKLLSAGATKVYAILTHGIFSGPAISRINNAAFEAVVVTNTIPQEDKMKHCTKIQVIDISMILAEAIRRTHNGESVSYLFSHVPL

[2] = test system: T2, EcSTH-LbNOX; assay: thio-NAD+ reduction at […] nm / NADPH depletion at […] nm; type: biochemical, Escherichia coli; conditions: 50 mM Tris-HCl pH 7.5, 10 μM FAD, 35 °C, EcSTH site
T2 construct: gene sthA; single-chain fusion EcSTH-Flag-LbNOX, three tandem Flag peptides as linker, expressed in HeLa cells, anti-Flag M2 purified; with NADH oxidase (water-forming)

[3] = molecular target: T3, PRPS1 (Homo sapiens, UniProt P60891); assay: ATP consumption, Kinase-Glo; type: biochemical; conditions: 300 µM ATP, 300 µM R-5-P, 5 mM MgCl2, 5 mM Na3PO4, pH 7.5, 37 °C; allosteric effector
T3 construct: His-tagged, pET-28a, expressed in E. coli BL21, Ni-Sepharose purified
T3 sequence (P60891 2-318): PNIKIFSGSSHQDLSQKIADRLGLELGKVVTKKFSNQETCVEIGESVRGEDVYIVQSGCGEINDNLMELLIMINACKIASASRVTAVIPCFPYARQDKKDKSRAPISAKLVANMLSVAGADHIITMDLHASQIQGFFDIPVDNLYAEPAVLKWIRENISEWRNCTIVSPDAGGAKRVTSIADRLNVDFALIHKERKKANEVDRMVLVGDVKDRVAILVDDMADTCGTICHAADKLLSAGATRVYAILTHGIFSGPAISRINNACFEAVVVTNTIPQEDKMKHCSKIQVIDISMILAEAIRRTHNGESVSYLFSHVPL

[4] = molecular target: T1, PRPS2; assay: biochemical; parameters: PRPS1/2 activity by ATP consumption, Kinase-Glo luminescence
[5] = molecular target: T1, PRPS2; assay: ATP consumption, Kinase-Glo; type: biochemical; conditions: 300 µM ATP, 300 µM R-5-P, 5 mM MgCl2, 5 mM Na3PO4, pH 7.5, 37 °C; allosteric effector
[6] = molecular target: T3, PRPS1; assay: biochemical; parameters: PRPS1/2 activity by ATP consumption, Kinase-Glo luminescence
[7] = test system: T4, HeLa Tet-on EcSTH; assay: cells; parameters: Sensitivity of HeLa cells to menadione, proliferation after 48 h; conditions: Homo sapiens, 48 h, Dox-, read-out: IC50 menadione
T4 construct: HeLa with inducible Tet-on EcSTH, not induced
Description: From top to bottom: **P < 0.0001, **P < 0.0001, **P < 0.0001, two-way ANOVA. d Effects of EGFP, EcSTH, LbNOX, or EcSTH-LbNOX expression on colony formation in HeLa cells cultured with Dox, as indicated, for 10 days (n = 3 biologically independent samples). From left to right: *P = 0.013, **P = 0.0001, **P = 6.58e-07, two-tailed Student’s t-tests. e The in vivo tumor growth of HeLa cells expressing inducible Tet-on EcSTH or EcSTH-LbNOX (n = 5 biologically independent animals). 2 mg/mL Dox was added in drinking water on day 10 and updated every two days. **P < 0.0001, two-way ANOVA. f Effects of α-KB treatment on proliferation of HeLa^Tet-on EcSTH cells. Cells were counted after treatment with Dox (1 µg/mL) and α-KB (1 or 2 mM) for 48 h (n = 4 biologically independent samples). From left to right: **P = 2.44e-06, **P = 1.85e-06, two-tailed Student’s t-tests. g Effects of inhibitors on proliferation of HeLa^Tet-on EcSTH cells. Cells were pretreated with the indicated inhibitors for 2 h, and cells were counted after treatment with Dox (1 µg/mL) for 48 h (n = 3 biologically independent samples). z-VAD (z-VAD-FMK, 20 µM), NSA (necrosulfonamide, 10 µM), Ferr-1 (Ferrostain-1, 5 µM). […] Cell apoptosis was measured by Flow cytometry after treatment with Dox (1 µg/mL) and α-KB (2 mM) for 24 h (n = 3 biologically independent samples). […]

[8] = test system: T5, HeLa Tet-on EcSTH-LbNOX; assay: cells; parameters: Sensitivity of HeLa cells to menadione, proliferation after 48 h; conditions: Homo sapiens, 48 h, Dox-, read-out: IC50 menadione
T5 construct: HeLa with inducible Tet-on EcSTH-LbNOX, not induced

[9] = substrate: NC(=O)C1=CN([C@@H]2O[C@H](COP(=O)(O)OP(=O)(O)OC[C@H]3O[C@@H](n4cnc5c(N)ncnc54)[C@H](O)[C@@H]3O)[C@@H](O)[C@H]2O)C=CC1; assay: purified protein; conditions: 50 mM Tris-HCl pH 7.5, 10 μM FAD, 35 °C
[10] = substrate: NC(=S)c1ccc[n+]([C@@H]2O[C@H](COP(=O)(O)OP(=O)(O)OC[C@H]3O[C@@H](n4cnc5c(N)ncnc54)[C@H](O)[C@@H]3O)[C@@H](O)[C@H]2O)c1; assay: purified protein; type: biochemical, Escherichia coli; conditions: 400 µM NADPH, 50 mM Tris-HCl pH 7.5, 10 μM FAD, 35 °C
[11] = substrate: NC(=O)C1=CN([C@@H]2O[C@H](COP(=O)(O)OP(=O)(O)OC[C@H]3O[C@@H](n4cnc5c(N)ncnc54)[C@H](OP(=O)(O)O)[C@@H]3O)[C@@H](O)[C@H]2O)C=CC1; assay: purified protein; type: biochemical, Escherichia coli; conditions: 400 µM thio-NAD+, 50 mM Tris-HCl pH 7.5, 10 μM FAD, 35 °C

Molecule: NC(=S)c1ccc[n+]([C@@H]2O[C@H](COP(=O)(O)OP(=O)(O)OC[C@H]3O[C@@H](n4cnc5c(N)ncnc54)[C@H](O)[C@@H]3O)[C@@H](O)[C@H]2O)c1 [thio-NAD^+]
Km ([2]; 400 µM NADPH): 272 µM

Molecule: CC1=CC(=O)c2ccccc2C1=O [Menadione]
IC50 [7]: 27.8 µM
IC50 [8]: 27.4 µM

B1: LbNOX (Levilactobacillus brevis ATCC 367) (protein)
chain: MKVTVVGCTHAGTFAIKQILAEHPDAEVTVYERNDVISFLSCGIALYLGGKVADPQGLFYSSPEELQKLGANVQMNHNVLAIDPDQKTVTVEDLTNHAQTTESYDKLVMTSGSWPIVPKIPGIDSDRVKLCKNWAHAQALIEDAKEAKRITVIGAGYIGAELAEAYSTTGHDVTLIDAMARVMPKYFDADFTDVIEQDYRDHGVQLALGETVESFTDSATGLTIKTDKNSYETDLAILCIGFRPNTDLLKGKVDMAPNGAIITDDYMRSSNPDIFAAGDSAAVHYNPTHQNAYIPLATNAVRQGILVGKNLVKPTVKYMGTQSSSGLALYDRTIVSTGLTLAAAKQQGLNAEQVIVEDNYRPEFMPSTEPVLMSLVFDPDTHRILGGALMSKYDVSQSANTLSVCIQNENTIDDLAMVDMLFQPNFDRPFNYLNILAQAAQAKVAQSVNA
Km [9]: 88.73 µM
kcat [9]: 836.55 s⁻¹

B2: EcSTH (Escherichia coli K-12) (protein)
chain: PHSYDYDAIVIGSGPGGEGAAMGLVKQGARVAVIERYQNVGGGCTHWGTIPSKALRHAVSRIIEFNQNPLYSDHSRLLRSSFADILNHADNVINQQTRMRQGFYERNHCEILQGNARFVDEHTLALDCPDGSVETLTAEKFVIACGSRPYHPTDVDFTHPRIYDSDSILSMHHEPRHVLIYGAGVIGCEYASIFRGMDVKVDLINTRDRLLAFLDQEMSDSLSYHFWNSGVVIRHNEEYEKIEGCDDGVIMHLKSGKKLKADCLLYANGRTGNTDSLALQNIGLETDSRGQLKVNSMYQTAQPHVYAVGDVIGYPSLASAAYDQGRIAAQALVKGEATAHLIEDIPTGIYTIPEISSVGKTEQQLTAMKVPYEVGRAQFKHLARAQIVGMNVGTLKILFHRETKEILGIHCFGERAAEIIHIGQAIMEQKGGGNTIEYFVNTTFNYPTMAEAYRVAALNGLNRLF
notes: C-terminal Flag tag (EcSTH-Flag), human-codon cDNA, expressed in HeLa cells, anti-Flag M2 purified
Km [10]: 242.8 µM
kcat [10]: 82.73 s⁻¹
Km [11]: 137.1 µM
kcat [11]: 81.73 s⁻¹

Second part, led by results:

Kd [1]: 118 µM
Molecule: NC(=O)C1=CN([C@@H]2O[C@H](COP(=O)(O)OP(=O)(O)OC[C@H]3O[C@@H](n4cnc5c(N)ncnc54)[C@H](O)[C@@H]3O)[C@@H](O)[C@H]2O)C=CC1 [NADH]

IC50 ([4]; read-out: IC50 of GDP (PRPS2)): 251 µM
IC50 ([6]; read-out: IC50 of GDP (PRPS1)): 171 µM
Molecule: Nc1nc2c(ncn2[C@@H]2O[C@H](COP(=O)(O)OP(=O)(O)O)[C@@H](O)[C@H]2O)c(=O)[nH]1 [GDP]
ATP consumption, Kinase-Glo [3]: NADH and NAD^+ exerted no effect on the suppression of PRPS1 by ADP or GDP
ATP consumption, Kinase-Glo [5]: protected PRPS2 against inhibition by ADP, but not against that by GDP

IC50 ([4]; read-out: IC50 of ADP (PRPS2)): 77.4 µM
IC50 ([6]; read-out: IC50 of ADP (PRPS1)): 41.3 µM
Molecule: Nc1ncnc2c1ncn2[C@@H]1O[C@H](COP(=O)(O)OP(=O)(O)O)[C@@H](O)[C@H]1O [ADP]

Km ([2]; 400 µM thio-NAD+): 194 µM
Molecule: NC(=O)C1=CN([C@@H]2O[C@H](COP(=O)(O)OP(=O)(O)OC[C@H]3O[C@@H](n4cnc5c(N)ncnc54)[C@H](OP(=O)(O)O)[C@@H]3O)[C@@H](O)[C@H]2O)C=CC1 [NADPH]
